US8697747B2, “Enhancing coagulation or reducing fibrinolysis” (THe UAB Research Foundation, priority 2009, dated 2014)

How the values were obtained:
Assay type in all cases: biochemical, human
pooled normal plasma [1] = assay: Thrombelastographic coagulation kinetics, tissue factor-activated normal plasma; conditions: 100 μM
Description: (§1) Pooled normal plasma (George King Bio-Medical, Overland Park, Kans.) anticoagulated with sodium citrate was utilized for experimentation. […] Factor XIII (FXIII) deficient plasma anticoagulated with sodium citrate was also obtained from George King Bio-Medical (Overland Park, Kans.).
(§2) Plasma Sample Composition. The final volume for all subsequently described plasma sample mixtures was 359.4 μL. […] (Motterlini et al., Expert Opin Investig Drugs, 14:1305-1318 (2005), which is incorporated by reference herein in its entirety).
(§3) Clot Lifespan Model Analyses. Plasma sample mixtures were placed in a disposable cup in a computer-controlled THROMBELASTOGRAPH® hemostasis system (Model 5000, Haemoscope Corp., Niles, Ill.), with addition of CaCl2 as the last step to initiate clotting. Data were collected for 15 minutes, as normal plasma completes thrombus formation within this interval in this system (Dong et al., Eur J Pharmacol 590:99-104 (2008)).
(§4) Statistical Analyses. Data are presented as mean±SD. All conditions described were represented with n=8 experiments, as n=6-8 typically provides statistical power>0.8 in similar analyses (Nielsen et al., Acta Anaesthesiol Scand 49:222-231 (2005) and Nielsen et al., Blood Coagul Fibrinolysis 17:75-81 (2006)). Analyses of the effects of CORM-2 and iCORM-2 on thrombelastographic variables were conducted using one way analysis of variance with the Holm-Sidak test used for post hoc comparisons. Graphical representation of the data was generated with commercially available software (Origin 7.5, OriginLab Corp., Northampton, Mass.). A P value of ≦0.05 was considered significant.

[2] = test system: α2-antiplasmin deficient plasma; assay: CLSM thrombelastography with tPA, α2-antiplasmin deficient plasma
Description: (§5) Pooled normal plasma (George King Bio-Medical, Overland Park, Kans.) anticoagulated with sodium citrate was utilized for experimentation. […] Factor XIII (FXIII) deficient plasma anticoagulated with sodium citrate was also obtained from the same vendor.
(§6) Plasma Sample Composition. The final volume for all subsequently described plasma sample mixtures was 359.4 μL. Sample composition consisted of 316 μL of plasma; 10 μL of tissue factor (0.1% final concentration in 0.9% NaCl; Diagnostica Stago, Asnieres, France), 3.6 μL of dimethyl sulfoxide (DMSO) or DMSO with CORM-2 (Sigma-Aldrich, St. Louis, Mo.) or DMSO with inactivated CORM-2 (iCORM-2), 10 μL of tissue-type plasminogen activator (tPA, 580 U/μg, Genentech, Inc., San Francisco, Calif.) diluted with 10 mM potassium phosphate buffer (pH 7.4) for a final activity of 100 IU/mL, and 20 μL of 200 mM CaCl2. […] This concentration of CORM-2 was chosen because the concentration of CO released would be expected to be in the mid to lower ranges used in previously reported ex vivo, in vitro, and cell-based experiments (Motterlini et al. 2002; Megias et al. 2007; Chlopicki et al. 2006; Dong et al. 2008). […] (Motterlini et al. 2005). While CORM-2 decays slowly in DMSO, DMSO was added to the dry compound just prior to placement into the plasma mixture. The specific series of experiments are subsequently presented.
(§7) Assessment of the Effects of CORM-2 on CLSM Parameters in FXIII, PAI-1, TAFI and α2-antiplasmin Deficient Plasmas. These experiments were performed to elucidate the roles played by antifibrinolytic enzymes during CORM-2 mediated modulation of fibrinolysis. Samples of the various deficient plasmas were exposed to 0 or 100 μM of CORM-2 (n=8 per condition). Samples underwent CLSM analyses as subsequently described.
(§8) Clot Lifespan Model Analyses. As described in Example 1, plasma sample mixtures were placed in a disposable cup in a computer-controlled THROMBELASTOGRAPH® hemostasis system (Model 5000, Haemoscope Corp., Niles, Ill.), with addition of CaCl2 as the last step to initiate clotting. Data were collected until clot lysis time occurred. […] As this model involves complete fibrinolysis, TTG is equivalent to ACL, so ACL was not presented as it provides no additional information.
(§9) Statistical Analyses. Data are presented as median (1st, 3rd quartiles). […] Nonlinear and linear analyses and curve fitting of the various CORM-2 concentrations effects on CLSM variables were performed with commercially available software (SigmaPlot 11.0, Systat Software, Inc., San Jose, Calif.). Analyses of the effects of CORM-2 and iCORM-2 on CLSM variables in normal plasma were conducted with Kruskal-Wallis one way analysis of variance on ranks, whereas Mann-Whitney rank sum tests were used to assess the effects of CORM-2 on CLSM variables in the various immunodepleted/congenitally deficient plasma types (SigmaStat 3.1, Systat Software, Inc., San Jose, Calif.). Graphical representation of the data was generated with commercially available software (SigmaPlot 11.0, Systat Software, Inc., San Jose, Calif.; CorelDRAW 12.0, Corel Corporation, Ottawa, Ontario, Canada; Origin 7.5, OriginLab Corp., Northampton, Mass.). A P value of <0.05 was considered significant.

pooled normal plasma [3] = assay: Thrombelastographic coagulation kinetics, Celite-activated normal plasma; conditions: 100 μM, mean ± SD, n=8
Description: as §1, §2, §3, §4

PAI-1 deficient plasma = assay: CLSM thrombelastography with tPA, PAI-1 deficient plasma; conditions: 100 μM CORM-2, tPA 100 IU/mL, median, n=8
Description: as §5, §6, §7, §8, §9

[4] = TF-activated normal plasma, mean ± SD, n=8
[5] = 100 μM CORM-2, tPA 100 IU/mL, median, n=8

## [C-]#[O+].[C-]#[O+].[C-]#[O+].[C-]#[O+].[C-]#[O+].[C-]#[O+].[Cl][Ru][Cl].[Cl][Ru][Cl] [CORM-2, tricarbonyldichlororuthenium (II) dimer]
Pooled normal plasma [1]; [4]
  MRTG (maximum rate of thrombus generation): 9.1 ± 0.9 dynes/cm^2/sec
  TMRTG (time to maximum rate of thrombus generation): 156 ± 13 s
  TTG (total thrombus generation): 273 ± 21 dynes/cm^2
Pooled normal plasma [1]; tissue factor activation
  velocity of clot growth relative to unexposed samples: more than double
[2]; [5]
  CGT (clot growth time): 188 s
  CLS (clot lifespan): 378 s
  CLT (clot lysis time): 190 s
  MRL (maximum rate of lysis): −10.0 -dynes/cm^2/sec
  MRTG (maximum rate of thrombus generation): 10.1 dynes/cm^2/sec
  TMRL (time to maximum rate of lysis): 68 s
  TMRTG (time to maximum rate of thrombus generation): 160 s
  TTG (total thrombus generation): 231 dynes/cm^2
[2]; 100 μM CORM-2 vs unexposed
  increase of CLS: 14%
  increase of the velocity of clot formation: 35%
  prolongation of CLT: 23%
Pooled normal plasma [3]
  MRTG (maximum rate of thrombus generation): 13.7 ± 1.3 dynes/cm^2/sec
  TMRTG (time to maximum rate of thrombus generation): 188 ± 18 s
  TTG (total thrombus generation): 248 ± 17 dynes/cm^2
PAI-1 deficient plasma
  CGT (clot growth time): 500 s
  CLS (clot lifespan): 1565 s
  CLT (clot lysis time): 1070 s
  MRL (maximum rate of lysis): −2.2 -dynes/cm^2/sec
  MRTG (maximum rate of thrombus generation): 9.4 dynes/cm^2/sec
  TMRL (time to maximum rate of lysis): 750 s
  TMRTG (time to maximum rate of thrombus generation): 160 s
  TTG (total thrombus generation): 228 dynes/cm^2
